Data on 18 compounds can be found in paper PMC6010112, “Resolution of co-eluting isomers of anti-inflammatory drugs conjugated to carbonic anhydrase inhibitors from plasma in liquid chromatography by energy-resolved tandem mass spectrometry” (Journal of Enzyme Inhibition and Medicinal Chemistry, 2018).

Series [1] in a line: Stability in human plasma (enzymatic hydrolysis), LC-MS/MS. The format is in vitro ADME. The note with it: 1 µM analyte, 37 °C, incubation 0-120 min; for half-life at 1 µM: male, read-out: T 1/2 Human plasma. The method, then: (§1) PBS was prepared by adding 8.01 g L^−1 of NaCl, 0.2 g L^−1 of KCl, 1.78 g L^−1 of Na2HPO4·2H2O, and 0.27 g L^−1 of KH2PO4. Human plasma was collected from healthy volunteer and the rat plasma was collected from Sprague-Dawley male rats; each plasma batch was kept at −80 °C until use.
(§2) The sample was prepared adding 10 µL of spiked solution to 100 µL of tested matrix (PBS or human plasma or rat plasma) in microcentrifuge tubes. The obtained solutions correspond to 1 µM of analyte.
Therefore, the matrix stability profile of each analyte was represented by a batch of 12 samples (4 incubation times ×3 replicates). After the incubation, the samples were added with 300 µL of ISTD solution and centrifuged (room temperature for 5 min at 800 g). The supernatants were transferred in autosampler vials and dried under a gentle stream of nitrogen.
(§3) The dried samples were dissolved in 1.0 mL of 10 mM of formic acid in mQ water:acetonitrile 80:20 solution[28].
(§4) An investigation on the chemical stability of compounds under study in PBS, human and rat plasma was performed for evaluating their susceptibility to spontaneous or enzymatic hydrolysis.
(§5) The stability profiles were obtained by monitoring the variation of analyte concentration at different incubation times in PBS or human or rat plasma samples. Generally, when the substrate concentration was smaller than the Michaelis–Menten constant (KM), the enzymatic degradation rate is described to a first-order kinetics. Therefore, plotting the natural logarithm of the quantitative data versus the incubation time, a linear function can be used and its slope represents the degradation rate constant (k).

A short description of series [2]: Stability in rat plasma (enzymatic hydrolysis), LC-MS/MS. The format is in vitro ADME, Sprague-Dawley male rats. The settings on record: male, Sprague-Dawley, 1 µM analyte, 37 °C, incubation 0-120 min, read-out: T 1/2 Rat plasma. The protocol: as §1, §2
(§6) Each set of samples was incubated in triplicate at four different times, 0, 30, 60, and 120 min at 37 °C. Therefore, the matrix stability profile of each analyte was represented by a batch of 12 samples (4 incubation times ×3 replicates). After the incubation, the samples were added with 300 µL of ISTD solution and centrifuged (room temperature for 5 min at 800 g). The supernatants were transferred in autosampler vials and dried under a gentle stream of nitrogen.
as §3, §4
In order to establish the hydrolytic activity of the employed plasma batches, two reference compounds were tested, following the procedure reported in the section ‘Validation of LC-MS/MS methods’: KEE (half-life <2 h) and enalapril (half-life <0.5 h) to verify the human and rat plasma activity, respectively[32]^,[33].
as §5
(§7) All degradation plots of references and studied compounds were reported in the Supplemental material (SF11–SF26). The half-life of each tested compound was calculated as follows: (4) […]

The nature of series [3]: Chemical stability in phosphate buffer solution (spontaneous hydrolysis), LC-MS/MS. The format is physicochemical. The note with it: phosphate buffer solution (PBS), 1 µM analyte, 37 °C, incubation 0-120 min, read-out: T 1/2 PBS. The protocol:
as §2, §6, §3, §4, §5, §7

Details of series [4]: method as in PMID 28238510, PMID 28113128. The note with it: cited from earlier work.
On the set-up of series [5]: method as in PMID 28238510, PMID 28113128. The settings on record: cited from earlier work. The source holds these as a separate data set.

In the case of `COc1ccc2c(c1)c(CC(=O)NCCOc1ccc3oc(=O)ccc3c1)c(C)n2C(=O)c1ccc(Cl)cc1` [Compound 1A], the half-life at 1 µM in series [1], in series [2] and in series [3] was over 4 h in each case.
For `COc1ccc2c(c1)c(CC(=O)NCCOc1ccc3ccc(=O)oc3c1)c(C)n2C(=O)c1ccc(Cl)cc1` [Compound 1B], the half-life at 1 µM in series [1], in series [2] and in series [3] was over 4 h throughout.
Consider `CC1=C(CC(=O)NCCOc2ccc3oc(=O)ccc3c2)c2cc(F)ccc2/C1=C\c1ccc([S+](C)[O-])cc1` (stereo not shown) [Compound 2A], for which the half-life at 1 µM in series [1], in series [2] and in series [3] was over 4 h each time.
Take `CC1=C(CC(=O)NCCOc2ccc3ccc(=O)oc3c2)c2cc(F)ccc2/C1=C\c1ccc([S+](C)[O-])cc1` (stereo not shown) [Compound 2B]: the half-life at 1 µM in series [1], in series [2] and in series [3] was over 4 h each time.
Turning to `CC(C(=O)NCCOc1ccc2oc(=O)ccc2c1)c1cccc(C(=O)c2ccccc2)c1` (stereo not shown) [Compound 3A], the half-life at 1 µM in series [1], in series [2] and in series [3] was over 4 h throughout.
Take `CC(C(=O)NCCOc1ccc2ccc(=O)oc2c1)c1cccc(C(=O)c2ccccc2)c1` (stereo not shown) [Compound 3B]: the half-life at 1 µM in series [1], in series [2] and in series [3] was over 4 h throughout.
Consider `CC(C)Cc1ccc(C(C)C(=O)NCCOc2ccc3oc(=O)ccc3c2)cc1` (stereo not shown) [Compound 4A], for which the half-life at 1 µM in series [1], in series [2] and in series [3] was over 4 h each time.
Take `CC(C)Cc1ccc(C(C)C(=O)NCCOc2ccc3ccc(=O)oc3c2)cc1` (stereo not shown) [Compound 4B]: the half-life at 1 µM in series [1], in series [2] and in series [3] was over 4 h in each case.
Regarding `O=C(Cc1ccccc1Nc1c(Cl)cccc1Cl)NCCOc1ccc2oc(=O)ccc2c1` [Compound 5A], the half-life at 1 µM in series [1], in series [2] and in series [3] was over 4 h each time.
For `O=C(Cc1ccccc1Nc1c(Cl)cccc1Cl)NCCOc1ccc2ccc(=O)oc2c1` [Compound 5B], the half-life at 1 µM in series [1], in series [2] and in series [3] was over 4 h each time.
Regarding `CC(C(=O)NCCOc1ccc2oc(=O)ccc2c1)c1ccc(-c2ccccc2)c(F)c1` (stereo not shown) [Compound 6A], the half-life at 1 µM in series [1], in series [2] and in series [3] was over 4 h throughout.
Turning to `CC(C(=O)NCCOc1ccc2ccc(=O)oc2c1)c1ccc(-c2ccccc2)c(F)c1` (stereo not shown) [Compound 6B], the half-life at 1 µM in series [1], in series [2] and in series [3] was over 4 h each time.
As for `O=C(c1ccccc1)c1ccc2n1CCC2C(=O)NCCOc1ccc2oc(=O)ccc2c1` (stereo not shown) [Compound 7A], the half-life at 1 µM in series [1], in series [2] and in series [3] was over 4 h throughout.
`O=C(c1ccccc1)c1ccc2n1CCC2C(=O)NCCOc1ccc2ccc(=O)oc2c1` (stereo not shown) [Compound 7B]: the half-life at 1 µM in series [1], in series [2] and in series [3] was over 4 h throughout.
Turning to `COc1ccc2cc(C(C)C(=O)NCCOc3ccc4oc(=O)ccc4c3)ccc2c1` (stereo not shown) [Compound 8A], the half-life at 1 µM in series [1], in series [2] and in series [3] was over 4 h in each case.
As to `COc1ccc2cc(C(C)C(=O)NCCOc3ccc4ccc(=O)oc4c3)ccc2c1` (stereo not shown) [Compound 8B], the half-life at 1 µM in series [1], in series [2] and in series [3] was over 4 h each time.
Turning to `CCOC(=O)[C@H](CCc1ccccc1)N[C@@H](C)C(=O)N1CCC[C@H]1C(=O)O` [Enalapril, enalapril, reference compound], the “half-life (reference compound to verify rat plasma activity)” value in series [4] is recorded as under 0.5 h. In series [2], the half-life at 1 µM is 0.367 h.
For `CCOC(=O)C(C)c1cccc(C(=O)c2ccccc2)c1` (stereo not shown) [KEE, Ketoprofen ethyl ester, reference compound], the “T 1/2 Human plasma” value in series [1] was 1.58 h. In series [5], the “half-life (reference compound to verify human plasma activity)” value was under 2 h.
